The values that follow come from patent US10202658B2, “Methods for determining hypersusceptibility of HIV-1 to non-nucleoside reverse transcriptase inhibitors” (Monogram Biosciences, Inc., priority 2005, dated 2019).

What all share (type): cell-based
The test system of assay [1] is HIV-1, RT mutations: 1 NAM. The experiment in a line: PhenoSense resistance test vector assay, clinical isolates with 1 NAM. To be noted: share of samples designated hypersusceptible. On the procedure:
(§1) In preferred embodiments, the phenotypic analysis of NNRTI hypersusceptibility is performed using PHENOSENSE™ (ViroLogic Inc., South San Francisco, Calif.). See Petropoulos et al., 2000, Antimicrob. Agents Chemother. 44:920-928; U.S. Pat. Nos. 5,837,464 and 6,242,187. PHENOSENSE™ is a phenotypic assay that achieves the benefits of phenotypic testing and overcomes the drawbacks of previous assays. Because the assay has been automated, PHENOSENSE™ provides high throughput methods under controlled conditions for determining NNRTI resistance, susceptibility, or hypersusceptibility of a large number of individual viral isolates.
(§2) The assay can be performed by first co-transfecting host cells with RTV DNA and a plasmid that expresses the envelope proteins of another retrovirus, for example, amphotropic murine leukemia virus (MLV). Following transfection, viral particles can be harvested from the cell culture and used to infect fresh target cells in the presence of varying amounts of anti-viral drug(s). The completion of a single round of viral replication in the fresh target cells can be detected by the means for detecting replication contained in the vector. In a preferred embodiment, the completion of a single round of viral replication results in the production of luciferase. By monitoring the amount of, e.g., luciferase activity in the presence of the varying amounts of antiviral drug(s), a resistance curve can be constructed by plotting luciferase activity versus drug concentration. The susceptibility of an HIV, or population of HIV, can be determined by measuring the concentration of antiviral drug at which the luciferase activity detected is half-maximal. This number, the IC50, provides a standard and convenient measure of drug resistance.
(§3) Patient-derived segment(s) corresponding to the HIV protease and reverse transcriptase coding regions were amplified by the reverse transcription-polymerase chain reaction method (RT-PCR) using viral RNA isolated from viral particles present in the plasma or serum of HIV-infected individuals as follows. […]

Assay [2] deals with HIV-1, RT mutations: 3 NAMs. In words: PhenoSense resistance test vector assay, clinical isolates with 3 NAMs. To be noted: share of samples designated hypersusceptible. On the procedure:
as §1, §2, §3

Another assay has as its system HIV-1, RT mutations: 65R. In words: PhenoSense resistance test vector assay, clinical isolates with 65R. The following applies: share of samples designated hypersusceptible. On the procedure: as §1
(§4) The assay can be performed by first co-transfecting host cells with RTV DNA and a plasmid that expresses the envelope proteins of another retrovirus, for example, amphotropic murine leukemia virus (MLV). Following transfection, viral particles can be harvested from the cell culture and used to infect fresh target cells in the presence of varying amounts of anti-viral drug(s). The completion of a single round of viral replication in the fresh target cells can be detected by the means for detecting replication contained in the vector. […] The susceptibility of an HIV, or population of HIV, can be determined by measuring the concentration of antiviral drug at which the luciferase activity detected is half-maximal. […]

Assay [3] has as its system HIV-1, RT mutations: 65R and 184V. In words: PhenoSense resistance test vector assay, clinical isolates with 65R and 184V. The following applies: share of samples designated hypersusceptible. On the procedure:
as §1, §4

The subject of assay [4] is HIV-1, RT mutations: T215Y and 2 TAMs. The experiment in a line: PhenoSense resistance test vector assay, clinical isolates with T215Y and 2 TAMs. The following applies: share of samples designated hypersusceptible. On the procedure:
as §1, §4

For assay [5], the system named is HIV-1, RT mutations: T215Y and 2 TAMs and H208X. In words: PhenoSense resistance test vector assay, clinical isolates with T215Y and 2 TAMs and H208X. To be noted: share of samples designated hypersusceptible. On the procedure: as §1, §2, §3
For assay [6], the system named is HIV-1 NL4-3 SDM, K65R in reverse transcriptase. In words: NNRTI susceptibility of site-directed mutant (SDM) bearing only K65R in NL4-3 background. To be noted: mean+/-SD of 18 replicates, p<0.00001 versus reference. On the procedure:
as §1
as §4, with “vector. In a preferred embodiment, the completion of a single round of viral replication results in the production of luciferase.” for “vector.”
Resistance tests were carried out with resistance test vectors using two host cell types. […] The resistance test vector viral particles were then used to infect a second host cell (the target host cell) in which the expression of the indicator gene is measured.
The amount of luciferase activity detected in infected cells is used as a direct measure of “infectivity,” i.e., the ability of the virus to complete a single round of replication. Thus, drug resistance or sensitivity can be determined by plotting the amount of luciferase activity produced by patient derived viruses in the presence of varying concentrations of the antiviral drug. […]

As to `CC(C)Nc1cccnc1N1CCN(C(=O)c2cc3cc(NS(C)(=O)=O)ccc3[nH]2)CC1` [DLV, delavirdine], the “% IC50 0.4 fold < WT” value was 13.2% in assay [1]; 12.8% in assay [2]; 44.4% in the assay with HIV-1, RT mutations: 65R; 42.7% in assay [3]; 71.8% in assay [4]; 90.9% in assay [5]. Besides, in assay [6], the “FC (fold change in IC50)” value is on record as 0.54+/−0.03.
With `O=C1Nc2ccc(Cl)cc2[C@@](C#CC2CC2)(C(F)(F)F)O1` [EFV, efavirenz], the “% IC50 0.4 fold < WT” value was 17.8% in assay [1], 28.2% in assay [2] and 54.5% in assay [5]. The “FC (fold change in IC50)” value in assay [6] was 0.56+/−0.02.
For `Cc1ccnc2c1NC(=O)c1cccnc1N2C1CC1` [NVP, nevirapine], the “% IC50 0.4 fold < WT” value in assay [1] amounted to 18.0%; in assay [2] it was 17.9%; with HIV-1, RT mutations: 65R, 55.6%; in assay [3] it was 50.7%; in assay [4], 31.3%; in assay [5], 9.1%. For the same molecule, the “FC (fold change in IC50)” value in assay [6] was 0.53+/−0.05.
